Assay results published in ChEMBL document CHEMBL3045417, “Structure, Conformation and Absolute Configuration of New Antifeedant Dolabellanes from Trichilia trifolia” (2000).

Test system: Sitophilus oryzae
Assay: Antifeedant activity against Sitophilus oryzae (rice weevil) assessed as mean diet consumed after 72 hr by flour disk bioassay based feeding choice assay (reference value: 7.61 +/- 1.59 mg/day)
Assay type: functional

C=C(C)[C@H]1CC[C@]2(C)C[C@H](OC(C)=O)[C@]3(C)CCC=C(CC[C@@H]12)C(=O)O3
Activity: 6.61 mg/day

C=C(C)[C@H]1CC[C@]2(C)C/C=C(\C)C[C@@H]3C=C(CC[C@@H]12)C(=O)O3
Activity: 3.36 mg/day

C=C(C)[C@H]1CC[C@]2(C)C[C@H](O)[C@]3(C)CCC=C(CC[C@@H]12)C(=O)O3
Activity: 1.03 mg/day

C=C(C)[C@H]1CC[C@]2(C)C/C=C(\C)CC/C=C(\C(=O)OC)CC[C@@H]12
Activity: 6.74 mg/day

C=C(C)[C@H]1CC[C@]2(C)C/C=C(\C)CC/C=C(\C(=O)O)CC[C@@H]12
Activity: 1.17 mg/day
